Measured values: patent US9695155B2, “Herbicidal substituted pyrimidinyloxy benzene compounds” (E. I. DU PONT DE NEMOURS AND COMPANY, priority 2013, dated 2017)

What was measured:
ragweed [1] = assay: Test A preemergence; type: in vivo, Ambrosia elatior; conditions: 0 to 100 scale where 0 is no effect and 100 is complete control; for Ragweed plant response rating: 500 g ai/ha
How it was run: (§1)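 Visual 0–100 rating (100 = complete control) taken about 10 d post-treatment relative to untreated checks. Preemergence: directed soil spray on sown loam/sand pots. Postemergence: seedlings 2–10 cm, 1–2 leaf. Non-phytotoxic solvent formulation with surfactant.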

giant foxtail = assay: Test A preemergence; type: in vivo, Setaria faberii; conditions: 0 to 100 scale where 0 is no effect and 100 is complete control; for pest or weed control at 125 g/ha: 125 g ai/ha
How it was run: as §1

pigweed = assay: Test A preemergence; type: in vivo, Amaranthus retroflexus; conditions: 0 to 100 scale where 0 is no effect and 100 is complete control; for pest or weed control at 125 g/ha: 125 g ai/ha
How it was run: as §1

ragweed [2] = assay: Test A postemergence; type: in vivo, Ambrosia elatior; conditions: for Ragweed plant response rating: 125 g ai/ha
How it was run: as §1

wheat = assay: Test A postemergence; type: in vivo, Triticum aestivum; conditions: for plant injury at 125 g/ha: 125 g ai/ha, read-out: Wheat plant response rating
How it was run: as §1

blackgrass = assay: Test A postemergence; type: in vivo, Alopecurus myosuroides; conditions: for Blackgrass plant response rating: 125 g ai/ha
How it was run: as §1

barnyardgrass = assay: Test B flooded paddy test; type: in vivo, Echinochloa crus-galli; conditions: Echinochloa crus-galli; Flood, 250 g ai/ha; 0 to 100 scale where 0 is no effect and 100 is complete control; read-out: Plant response rating, Barnyardgrass
How it was run: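 Evaluation is visual, against untreated controls, 13 to 15 days after treatment. Before treatment, plants reached the 2-leaf stage; pots were then flooded 3 cm deep, compound was added to the water, and that level was maintained. Ratings run 0 to 100, with 100 meaning complete control.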

Italian ryegrass = assay: Test C preemergence; type: in vivo, Lolium multiflorum; conditions: Lolium multiflorum, pre-emergence; for pest or weed control at 16 g/ha: 16 g ai/ha, scale 0 to 100 (0 no effect, 100 complete control); for pest or weed control at 16 g/ha / pest or weed control at 62 g/ha / pest or weed control at 125 g/ha: preemergence, read-out: Ryegrass, Italian plant response rating; for pest or weed control at 62 g/ha: 62 g ai/ha; for pest or weed control at 62 g/ha / pest or weed control at 125 g/ha: scale 0 (no effect) to 100 (complete control); for pest or weed control at 125 g/ha: 125 g ai/ha
How it was run: (§2)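 Plants were kept under greenhouse conditions for 13–15 days following spray. Pre-emergent application went to soil (loam–sand), post-emergent to foliage at 1–4 leaves. Evaluation: visual, percent control against untreated checks.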

large (Lg) crabgrass = assay: Test C preemergence; type: in vivo, Digitaria sanguinalis; conditions: Digitaria sanguinalis, pre-emergence; for pest or weed control at 16 g/ha: 16 g ai/ha, scale 0 to 100 (0 no effect, 100 complete control); for pest or weed control at 16 g/ha / pest or weed control at 62 g/ha / pest or weed control at 125 g/ha: preemergence, read-out: Crabgrass, Large plant response rating; for pest or weed control at 62 g/ha: 62 g ai/ha; for pest or weed control at 62 g/ha / pest or weed control at 125 g/ha: scale 0 (no effect) to 100 (complete control); for pest or weed control at 125 g/ha: 125 g ai/ha; for pest or weed control at 31 g/ha: Preemergence, 31 g ai/ha, scale 0 to 100, 0 no effect, 100 complete control, read-out: Plant response rating, Crabgrass, Large
How it was run: as §2

wheat, winter = assay: Test C postemergence; type: in vivo, Triticum aestivum; conditions: for plant injury at 16 g/ha / plant injury at 125 g/ha / plant injury at 62 g/ha: Triticum aestivum, post-emergence; for plant injury at 16 g/ha: 16 g ai/ha, 0 is no effect, 100 is complete control, read-out: Plant response rating (0 to 100), Wheat; for plant injury at 125 g/ha: 125 g ai/ha; for plant injury at 125 g/ha / plant injury at 62 g/ha: read-out: Plant response rating, Wheat; for plant injury at 62 g/ha: Postemergence, 62 g ai/ha
How it was run: as §2

kochia = assay: Test C postemergence; type: in vivo, Kochia scoparia; conditions: Bassia scoparia, post-emergence; for pest or weed control at 16 g/ha: 16 g ai/ha, 0 is no effect, 100 is complete control, read-out: Plant response rating (0 to 100), Kochia; for pest or weed control at 125 g/ha: 125 g ai/ha; for pest or weed control at 125 g/ha / pest or weed control at 62 g/ha: read-out: Plant response rating, Kochia; for pest or weed control at 62 g/ha: Postemergence, 62 g ai/ha
How it was run: as §2

wild oat = assay: Test C postemergence; type: in vivo, Avena fatua; conditions: for pest or weed control at 16 g/ha / pest or weed control at 125 g/ha / pest or weed control at 62 g/ha: Avena fatua, post-emergence; for pest or weed control at 16 g/ha: 16 g ai/ha, 0 is no effect, 100 is complete control, read-out: Plant response rating (0 to 100), Oat, Wild; for pest or weed control at 125 g/ha: 125 g ai/ha; for pest or weed control at 125 g/ha / pest or weed control at 62 g/ha: read-out: Plant response rating, Oat, Wild; for pest or weed control at 62 g/ha: Postemergence, 62 g ai/ha
How it was run: as §2

chickweed = assay: Test C postemergence; type: in vivo, Stellaria media; conditions: Stellaria media, post-emergence; for pest or weed control at 16 g/ha: 16 g ai/ha, 0 is no effect, 100 is complete control, read-out: Plant response rating (0 to 100), Chickweed; for pest or weed control at 125 g/ha: 125 g ai/ha; for pest or weed control at 125 g/ha / pest or weed control at 62 g/ha: read-out: Plant response rating, Chickweed; for pest or weed control at 62 g/ha: Postemergence, 62 g ai/ha
How it was run: as §2

[3] = Setaria faberi, pre-emergence, 240 h, read-out: Plant response rating, Foxtail, Giant
[4] = Amaranthus retroflexus, pre-emergence, read-out: Plant response rating, Pigweed
[5] = 31 g ai/ha, 0 to 100 scale, 0 no effect, 100 complete control
[6] = 0 to 100 scale where 0 is no effect and 100 is complete control
[7] = Triticum aestivum, post-emergence, 240 h, 0 to 100 scale where 0 is no effect and 100 is complete control
[8] = postemergence, visual rating, scale 0 to 100 (0 no effect, 100 complete control)
[9] = scale 0 to 100 (0 no effect, 100 complete control)
[10] = 500 g ai/ha, 0 to 100 scale where 0 is no effect and 100 is complete control
[11] = 31 g ai/ha, postemergence, visual rating, scale 0 to 100 (0 no effect, 100 complete control), 13 to 15 days

| Structure (SMILES) | Plant response rating, Ragweed (ragweed [1]; 125 g ai/ha) | pest or weed control at 125 g/ha (giant foxtail; [3]) | pest or weed control at 125 g/ha (pigweed; [4]) | Ragweed plant response rating (ragweed [2]; [6]) | plant injury at 125 g/ha (wheat; [7]) | Blackgrass plant response rating (blackgrass; [6]) | pest or weed control at 250 g/ha (barnyardgrass) | pest or weed control at 16 g/ha (Italian ryegrass) | pest or weed control at 62 g/ha (Italian ryegrass) | pest or weed control at 125 g/ha (Italian ryegrass) | pest or weed control at 16 g/ha (large (Lg) crabgrass) | pest or weed control at 62 g/ha (large (Lg) crabgrass) | pest or weed control at 125 g/ha (large (Lg) crabgrass) | pest or weed control at 31 g/ha (large (Lg) crabgrass) | plant injury at 16 g/ha (wheat, winter; postemergence) | plant injury at 125 g/ha (wheat, winter; [8]) | plant injury at 62 g/ha (wheat, winter; [9]) | pest or weed control at 16 g/ha (kochia; postemergence) | pest or weed control at 125 g/ha (kochia; [8]) | pest or weed control at 62 g/ha (kochia; [9]) | also measured |
| --- | --- | --- | --- | --- | --- | --- | --- | --- | --- | --- | --- | --- | --- | --- | --- | --- | --- | --- | --- | --- | --- |
| Fc1cccc(Oc2ncc(Cl)cn2)c1-n1cc(C(F)F)nn1 [Compound 141, 5-chloro-2-[2-[4-(difluoromethyl)-1H-1,2,3-triazol-1-yl]-3-fluorophenoxy]pyrimidine] | 100 | 100% | 100% | 100 | 80% | 100 | 100% | 40% | 75% | 100% | 100% | 100% | 100% | 100% | 0% | 25% | 5% | 100% | 100% | 100% | Plant response rating, Ragweed (ragweed [1]; 31 g ai/ha, visual, approximately 10 days): 90; pest or weed control at 31 g/ha (giant foxtail; Setaria faberi, pre-emergence, 240 h, 31 g ai/ha, visual, approximately 10 days, read-out: Plant response rating, Foxtail, Giant): 100%; pest or weed control at 31 g/ha (pigweed; Amaranthus retroflexus, pre-emergence, 240 h, 31 g ai/ha, visual, approximately 10 days, read-out: Plant response rating, Pigweed): 100%; Plant response rating, Ragweed (ragweed [2]; [5]): 80; plant injury at 31 g/ha (wheat; Triticum aestivum, post-emergence, 240 h, 31 g ai/ha, 0 to 100 scale, 0 no effect, 100 complete control, read-out: Plant response rating, Wheat): 10%; Plant response rating, Blackgrass (blackgrass; [5]): 90; pest or weed control at 16 g/ha (wild oat; postemergence): 0%; pest or weed control at 125 g/ha (wild oat; [8]): 30%; pest or weed control at 62 g/ha (wild oat; [9]): 10%; pest or weed control at 16 g/ha (chickweed; postemergence): 70%; pest or weed control at 125 g/ha (chickweed; [8]): 100%; pest or weed control at 62 g/ha (chickweed; [9]): 95% |
| N#Cc1cccc(Oc2ncc(Cl)cn2)c1-n1cc(SC(F)(F)F)cn1 [Compound 134, 3-[(5-chloro-2-pyrimidinyl)oxy]-2-[4-(trifluoromethylthio)-1-pyrazolyl]benzonitrile] | 60 | 100% | 100% | 50 | 0% | 30 | 0% | 0% | 15% | 70% | 60% | 98% | 100% | 98% | 0% | 25% | 5% | 75% | 95% | 95% | Ragweed plant response rating (ragweed [1]): 80; Foxtail, Giant plant response rating (giant foxtail; 500 g ai/ha): 100; Pigweed plant response rating (pigweed; 500 g ai/ha): 100; Plant response rating, Ragweed (ragweed [2]; [10]): 60; Plant response rating, Wheat (wheat; [10]): 70; Plant response rating, Blackgrass (blackgrass; [10]): 90; pest or weed control at 31 g/ha (Italian ryegrass; Preemergence, 31 g ai/ha, scale 0 to 100, 0 no effect, 100 complete control, read-out: Plant response rating, Ryegrass, Italian): 5%; pest or weed control at 16 g/ha (wild oat; postemergence): 5%; pest or weed control at 125 g/ha (wild oat; [8]): 10%; pest or weed control at 62 g/ha (wild oat; [9]): 10%; pest or weed control at 16 g/ha (chickweed; postemergence): 45%; pest or weed control at 125 g/ha (chickweed; [8]): 80%; pest or weed control at 62 g/ha (chickweed; [9]): 55% |
| FC(F)c1cn(-c2ccccc2Oc2ncc(Cl)cn2)nn1 [Compound 147, 5-chloro-2-[2-[4-(difluoromethyl)-1H-1,2,3-triazol-1-yl]phenoxy]pyrimidine] | 90 | 100% | 100% | 100 | 50% | 100 | 35% | 0% | 50% | 70% | 98% | 100% | 100% | 100% | 0% | 15% | 10% | 40% | 100% | 95% | Ragweed plant response rating (ragweed [1]): 100; pest or weed control at 500 g/ha (giant foxtail; Setaria faberi, pre-emergence, 240 h, 500 g ai/ha, read-out: Foxtail, Giant plant response rating): 100%; pest or weed control at 500 g/ha (pigweed; Amaranthus retroflexus, pre-emergence, 240 h, 500 g ai/ha, read-out: Pigweed plant response rating): 100%; Plant response rating, Ragweed (ragweed [2]; [10]): 100; plant injury at 500 g/ha (wheat; Triticum aestivum, post-emergence, 240 h, 500 g ai/ha, 0 to 100 scale where 0 is no effect and 100 is complete control, read-out: Plant response rating, Wheat): 80%; Plant response rating, Blackgrass (blackgrass; [10]): 100; Wheat plant response rating (wheat, winter; [11]): 5; pest or weed control at 31 g/ha (kochia; 31 g ai/ha, postemergence, visual rating, scale 0 to 100 (0 no effect, 100 complete control), 13 to 15 days, read-out: Kochia plant response rating): 90%; Oat, Wild plant response rating (wild oat; [11]): 0; pest or weed control at 16 g/ha (wild oat; postemergence): 0%; pest or weed control at 125 g/ha (wild oat; [8]): 5%; pest or weed control at 62 g/ha (wild oat; [9]): 0%; pest or weed control at 16 g/ha (chickweed; postemergence): 15%; pest or weed control at 31 g/ha (chickweed; 31 g ai/ha, postemergence, visual rating, scale 0 to 100 (0 no effect, 100 complete control), 13 to 15 days, read-out: Chickweed plant response rating): 70%; pest or weed control at 125 g/ha (chickweed; [8]): 90%; pest or weed control at 62 g/ha (chickweed; [9]): 75% |
